In patent US11795135B2, “Prostacyclin compounds, compositions and methods of use thereof” (Insmed Incorporated, priority 2013, dated 2023):
“Also recorded” adds a separate entry of the source. Read-outs that look alike come from different tables or passages of the source.

Tests used:
esterase = experiment: Esterase mediated conversion of treprostinil compounds to treprostinil; assay type: in vitro ADME; conditions: incubation with esterase at 37° C., 1 hour (FIG. 28, 30)
Procedure: A set of studies was conducted to determine the conversion kinetics to treprostinil of linear treprostinil compounds versus various branched treprostinil compounds. 0.4 mM of linear C8-TR or branched treprostinil compounds 2-dimethyl-1-propanyl-TR, 3,3-dimethyl-1-butanyl-TR, 2-ethyl-1-butanyl-TR, 5-nonanyl-TR, or 3-pentanyl-TR (see below for structures) were incubated with 0.2 U esterase at 37° C. for 1 hour, and the conversion (% of total) was calculated at 0.25, 0.5, 0.75, or 1 hour incubation time. • C8-TR (i.e., the compound of Formula (A) wherein
The conversion is relative to the C8-TR compound and conversion was measured at 1 hr. post esterase incubation. • C8-TR (i.e., the compound of Formula (A) wherein
Conversion was measured at 1 hr. post esterase incubation. • 4C7-TR (i.e., the compound of Formula (A) wherein

EP2 prostanoid receptor = biological target: T1, EP2 prostanoid receptor (Homo sapiens, UniProt P43116); experiment: GloSensor cAMP assay in CHO-K1 cells co-transfected with the EP2 receptor; assay type: cell-based; conditions: for ranking of activity of the treprostinil compounds: kinetic profile, 10 μM and 5 μM, FIG. 21
T1 construct: host or cells: CHO-K1
Excerpt: cAMP is a second messenger involved in signal transduction of G-protein coupled receptors (GPCRs) acting through Gα-s and Gα-i proteins. Because the treprostinil receptor is a GPCR, the assay provides an indication of whether the respective prostacyclin compound (or metabolite thereof) binds its receptor and activates the GPCR cell signaling cascade. The GloSensorTM assay harnesses a genetically modified form of firefly luciferase into which a cAMP-binding protein moiety has been inserted. Upon binding of cAMP, a conformational change is induced leading to increased light output. The EP2 prostanoid receptor was co-transfected with the GloSensorTM plasmid (Promega) into CHO-K1 cells as follows. CHO-K1 cells were harvested when the monoloayer was at 50-90% confluence. First, cells were washed with 5 mL PBS. […] The media was aspirated, and the cell pellet was resuspended in 10 mL of growth media. Cell number was determined using a hemacytometer. Each well of a culture treated 96 well flat bottom plate (Costar, Cat #: 3917) was seeded with 1×10^4 cells per 100 μL antibiotic-free growth media. […] For small scale transfections of up to 20 wells, the pGLoSensor-22F cAMP plasmid (Promega, Cat #: E2301) (2 μg): (EP2) (10 ng) (Origene, Cat #: SC126558):pGEM-3Zf(+) (10 ng) (Promega, Cat #: P2271) ratio was diluted to a final concentration of 12.6 ng/μL (total plasmid) in Opti-MEM I reduced-serum medium (Life Technologies, Cat #: 1985062). Next, 6 μL of FuGENE HD transfection reagent (Promega, Cat #: E2311) was added to 160 μL of diluted plasmid and mixed carefully by gentle pipetting. The complex was incubated at room temperature for 0 to 10 minutes, and then 8 μL of the complex was added per well of a 96 well white assay plate (Costar, Cat #: 3917) and gently mixed without disturbing the cell monolayer. […] Following incubation, cells were treated and analyzed. For larger scale transfections, the aforementioned steps were scaled up accordingly, and cells were frozen following the last incubation. In order to prepare frozen transfected CHO-K1 cells, the media was aspirated from culture flasks and cells were rinsed with 5 mL PBS. […] Cell number was determined using a hemacytometer. The media was aspirated, and the cell pellet was resuspended in freezing media (Millipore, cat #: S-002-5F) at 2.5×10^6 cells/vial. Transfected cells were incubated overnight at -80° C. before transfer to liquid nitrogen for long term storage. […] In preparation for cAMP measurement, the cells were equilibrated with the GloSensor cAMP reagent prior to treatment. For equilibration, the medium was carefully removed from the individual well. Next, 100 μL of equilibration medium ([…] of Glosensor Reagent stock solution (Promega, Cat #: E291), 10% FBS (Hyclone, Cat #: SH30071.03) and 88% CO2 independent medium (Life Technologies, Cat #: 18045088)) was added per well of the 96-well plate, and added to the side of each well. The plate was then incubated for 2 hours at room temperature. A first pre-read measurement was taken using a microplate reader (MicroLumat Plus). Plates were incubated for an additional 10 minutes at room temperature, followed by a second pre-read measurement. […] Following treatment, each plate was read every 5 minutes for the duration of the assay using a microplate reader (MicroLumat Plus). In order to determine the fold change in cAMP relative to the control, the transfection efficiency was first determined by dividing the second pre-read measurement by the average of the corresponding pre-read measurements. Next, the normalized relative light units (RLUs) of the samples were determined by dividing the plate read measurement by the transfection efficiency. The fold change in cAMP relative to the control was then determined by dividing the normalized RLU of the samples by the normalized RLU of the control. The cAMP assay was validated using free treprostinil. […] Luminescence was then measured at room temperature. […]

[1] = tested on: Rat alveolar NR8383 cells; experiment: NR8383 cell proliferation assay (Presto Blue); assay type: cell-based
Procedure: Rat alveolar NR8383 cells were harvested when the monolayer was 50-90% confluent (use passage 5-11). Because the NR8383 cells include both adherent and non-adherent cells, media was transferred to a 50 mL Falcon tube. To obtain the cells remaining in the flask, 2 mL of plain media was added, and the remaining cells were scraped out of the 75 cm^2 flask with a cell scraper and added to the 50 mL tube. […] SH30071.03)+1×Pen-Strep (Life Technologies, cat #: 15410-122)). Cell number was determined using a hemacytometer. […] Measurements and calculations were made as described above for the CHO-K1 cells.

CHO-K1 cells = experiment: CHO-K1 cell proliferation assay (Presto Blue)
Procedure: CHO-K1 cells were harvested when the cell monolayer was 50-90% confluent (use passage 4-11). Media was aspirated out of the flask, and cells were rinsed with 2 mL of F12 media. Next, 1 mL of pre-warmed (37° C.) 0.25% trypsin-EDTA (Life Technologies, Cat #: 25300054) was added, and cells were dislodged from the flask by tapping it on the side. Complete growth media (F12 (Life Technologies, Cat #: 31765092)+10% FBS (Hyclone, Cat #: SH30071.03)+1× Pen-Strep (Life Technologies, cat #15140-122) was then added at a volume of 10 mL. Cells were centrifuged at 250×g for 5 minutes at room temperature, and the media was aspirated. The cell pellet was resuspended in 10 mL complete growth media. Cell number was determined using a hemacytometer. Cells were then seeded at 2000 cells per well of a 96-well plate in 100 μL of complete growth media. The plate was incubated overnight at 37° C. and 5% CO2 in a water-jacketed incubator.
The next day, 80 μL of fresh complete media was added to each well, and CHO-K1 cells were challenged with treprostinil compound and composition treatments. The working solutions were prepared at 10× concentration, and following 2 fold serial dilutions, 20 μL aliquots were added per well to arrive at a final 1× concentration. Following a 48 hour incubation at 37° C. and 5% CO2 in a water-jacketed incubator, the inhibitory effect on cell proliferation was determined. Plates were analyzed using 20 μL of Presto Blue reagent (Life Technologies, cat #: A13262) per well. The reagent was mixed, and plates were incubated for 1 hour at 37° C. and 5% CO2 in a water-jacketed incubator. Plates were read using either a CytoFluor Series 4000 (PerSeptive BioSystems) or Synergy Neo microplate reader (BioTek) with emission λ: 590 nm and excitation λ: 560 nm.
at concentrations ranging from 0.55 μM to 125 μM. Following a 48 hour incubation period, the inhibitory effect of the treprostinil derivative compositions on cell proliferation was determined.
C2, C3, C4, C5, C6, C8, C10 or Cu straight chain alkyl, at dosages ranging from 0.098 μM to 25 μM. Following a 48 hour incubation period, the inhibitory effect on cell proliferation was determined.
Following a 72 hour incubation period, the inhibitory effect on cell proliferation was determined. Following a 48 hour incubation period, the inhibitory effect on cell proliferation was determined.
Similarly, CHO-K1 cells were challenged with the treprostinil compositions T612 (R2=C2), T613 (R2=C8) at concentrations ranging from 1.41 μM to 180 μM.

[2] = Treprostinil alkyl ester conversion to treprostinil in rat lung tissue homogenate; assay type: in vitro ADME; conditions: 37° C., 200 nM, 4 hours, 10 mg/mL of protein
Procedure: Treprostinil alkyl ester conversion to treprostinil was also measured in the presence of rat, dog and monkey lung tissue homogenate at 37° C. Here, data were calculated based on fit of exponential increase to the maximum (experiments performed in duplicate). The results of this study are provided below in Table 2A and FIG. 37. […] Both FIG. 37 experiments (left and right graphs) were performed in duplicate and the lines represent nonlinear exponential regression assuming 1 phase decay.

[3] = Particle size characterization of treprostinil compositions (QELS); assay type: physicochemical; conditions: particles of compositions comprising the alkyl ester, FIG. 2
Procedure: All particle size measurements were performed using a Wyatt Technology Mobius™ Zeta Potential/Particle Sizing Instrument in Quasi-elastic light scattering (QELS) mode. Composition aliquots were diluted 10-fold in pre-filtered (0.02 μm pore filter) ultrapure of deionized H2O. Light scattering data was collected and converted into particle size and size distribution using Dynamics® v. […] Reported average particle size diameter is based on the cumulants model, which mathematically fits particle diffusion constants (determined by the raw scattering intensities of particles in a suspension) to obtain the particle size mean and a distribution of particle sizes around the mean diameter.
Particle uniformity was determined using the software-calculated polydispersity (% PD). Polydispersity is defined as the standard deviation of the particle size distribution from the mean particle size value. % PD normalizes the polydispersity to the mean diameter by dividing by the mean size and multiplying by 100. These parameters indicate whether a particle suspension has one or more size populations of particles (monomodal versus multimodal). […]
Dynamics® polydispersity parameter represents a monodisperse population of particles if % PD≤15. A calculated % PD≥57% represents a polydisperse population of particles.

[4] = unformulated alkyl esters, 72 hour incubation
[5] = unformulated alkyl esters, 48 hour incubation

T1 sequence (P43116 whole entry): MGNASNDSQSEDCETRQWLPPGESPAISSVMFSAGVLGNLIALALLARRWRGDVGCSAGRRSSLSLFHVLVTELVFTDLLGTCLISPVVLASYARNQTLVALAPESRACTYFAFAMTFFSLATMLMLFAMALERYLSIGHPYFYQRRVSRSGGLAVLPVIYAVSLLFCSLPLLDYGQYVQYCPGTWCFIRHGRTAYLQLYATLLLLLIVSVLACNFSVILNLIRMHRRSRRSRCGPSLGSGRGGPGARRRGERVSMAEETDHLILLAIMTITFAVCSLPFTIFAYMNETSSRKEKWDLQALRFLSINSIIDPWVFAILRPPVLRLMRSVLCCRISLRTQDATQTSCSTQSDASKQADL

Molecule | esterase mediated conversion rate to treprostinil (comparison) (esterase) | Effect on cell proliferation, NR8383 Cells (0.195 μM-25 μM) [1, 4] | Effect on cell proliferation, CHO-K1 Cells (0.195 μM-25 μM) (CHO-K1 cells; [5]) | other results
CCCCCC(O)CCC1C(O)CC2Cc3c(cccc3OCC(=O)OC(CCC)CCCC)CC21 (mixture of isomers) [Compound 4C8-TR] | slower conversion rate than the linear compound C8-TR; also recorded: slower conversion rate than the symmetrical compounds (4C7-TR and 5C9-TR) |  |  | 
CCCCCC[C@@H](C)OC(=O)COc1cccc2c1C[C@H]1C[C@@H](O)[C@H](CC[C@@H](O)CCCCC)[C@H]1C2 [(R)-2C8-TR] | no significant difference between the conversion rates of R and S isomers |  |  | 
CCCCCC[C@H](C)OC(=O)COc1cccc2c1C[C@H]1C[C@@H](O)[C@H](CC[C@@H](O)CCCCC)[C@H]1C2 [(S)-2C8-TR] | no significant difference between the conversion rates of R and S isomers |  |  | 
CCCCC[C@H](O)CC[C@@H]1[C@H]2Cc3cccc(OCC(=O)OC(CCC)CCC)c3C[C@H]2C[C@H]1O [Compound 4C7-TR] | slower conversion rate than the linear compound C8-TR |  |  | 
CCCCC[C@H](O)CC[C@@H]1[C@H]2Cc3cccc(OCC(=O)OC(CCCC)CCCC)c3C[C@H]2C[C@H]1O [Compound 5C9-TR, 5-nonanyl-treprostinil] | slower conversion rate than the linear compound C8-TR |  |  | esterase mediated conversion rate to treprostinil (comparison) (esterase; listed as 5-nonanyl-TR): slower conversion rate than linear C8-TR; ranking of activity of the treprostinil compounds (EP2 prostanoid receptor): C12-TR>C14-TR>5-nonanyl-TR>C16-TR
CCCCC[C@H](O)CC[C@@H]1[C@H]2Cc3cccc(OCC(=O)OCC)c3C[C@H]2C[C@H]1O [Compound C2-TR, treprostinil ethyl ester] |  | No detectable cell inhibition | No detectable cell inhibition | 
CCCCC[C@H](O)CC[C@@H]1[C@H]2Cc3cccc(OCC(=O)OCCC)c3C[C@H]2C[C@H]1O [Compound C3-TR] |  | No detectable cell inhibition | No detectable cell inhibition | 
CCCCC[C@H](O)CC[C@@H]1[C@H]2Cc3cccc(OCC(=O)OCCCC)c3C[C@H]2C[C@H]1O [Compound C4-TR] |  | No detectable cell inhibition | No detectable cell inhibition | 
CCCCCCOC(=O)COc1cccc2c1C[C@H]1C[C@@H](O)[C@H](CC[C@@H](O)CCCCC)[C@H]1C2 [Compound C6-TR] |  | No detectable cell inhibition | No detectable cell inhibition | 
CCCCCCCCCCCCCCOC(=O)COc1cccc2c1C[C@H]1C[C@@H](O)[C@H](CC[C@@H](O)CCCCC)[C@H]1C2 [Compound C14-TR, tetradecyl-treprostinil] |  |  |  | Rate of treprostinil alkyl ester conversion [2]: 0.4 nmOL/h * g of protein; ranking of activity of the treprostinil compounds (EP2 prostanoid receptor): C12-TR>C14-TR>5-nonanyl-TR>C16-TR; polydispersity (% PD) [3]: around 15%
treprostinil decyl ester [Compound C10-TR] |  |  |  | Effect on cell proliferation, NR8383 Cells (0.195 μM-25 μM) [1]: No detectable cell inhibition; duration of cAMP levels compared with free treprostinil and the C6, C8, and C12 derivatives (EP2 prostanoid receptor; 5 μM, FIG. 4 and FIG. 5): sustained significantly longer; cAMP levels compared with free treprostinil (EP2 prostanoid receptor; 10 μM, composition, FIG. 3A): equivalent to free treprostinil; cAMP levels sustained for (EP2 prostanoid receptor; 10 μM, composition, FIG. 3A): at least 6 hours; cAMP response compared with the response induced by free treprostinil (EP2 prostanoid receptor; compositions, 5 μM, FIG. 4): greater than or equivalent to the response induced by free treprostinil; cAMP response level (EP2 prostanoid receptor; unformulated compounds, 5 μM, FIG. 5): equivalent to free treprostinil; Effect on cell proliferation, CHO-K1 Cells (0.195 μM-25 μM) (CHO-K1 cells): No detectable cell inhibition; polydispersity (% PD) [3]: around 15%
